Experimental data as given in ChEMBL document CHEMBL4000195, “Design and synthesis of novel 7-aminosubstituted pyrido[2,3-b]pyrazines exhibiting anti-breast cancer activity” (Eur J Med Chem, 2017).
pIC50: −log10 of the molar value. Each block holds one compound with its values, some of them ahead of it. Activity calls are given as the source filed them. The calls are words filed in the database; no cut-off is given here.

Legend:
MCF7 [1] = experiment: Cytotoxicity against human MCF7 cells at 5 uM by MTT assay; format: functional
MCF7 [2] = experiment: Cytotoxicity against human MCF7 cells at 10 uM by MTT assay; format: functional
T47D [3] = experiment: Cytotoxicity against human T47D cells at 5 uM by MTT assay; format: functional
T47D [4] = experiment: Cytotoxicity against human T47D cells at 10 uM by MTT assay; format: functional
MDA-MB-231 [5] = experiment: Cytotoxicity against human MDA-MB-231 cells at 5 uM by MTT assay; format: functional
MDA-MB-231 [6] = experiment: Cytotoxicity against human MDA-MB-231 cells at 10 uM by MTT assay; format: functional
HCC1954 [7] = experiment: Cytotoxicity against human HCC1954 cells at 5 uM by MTT assay; format: functional
HCC1954 [8] = experiment: Cytotoxicity against human HCC1954 cells at 10 uM by MTT assay; format: functional
MCF7 [9] = experiment: Cytotoxicity against human MCF7 cells by MTT assay; format: functional, cell-based
T47D [10] = experiment: Cytotoxicity against human T47D cells by MTT assay; format: functional, cell-based
MDA-MB-231 [11] = experiment: Cytotoxicity against human MDA-MB-231 cells by MTT assay; format: functional, cell-based
HCC1954 [12] = experiment: Cytotoxicity against human HCC1954 cells by MTT assay; format: functional, cell-based
SK-BR-3 = experiment: Cytotoxicity against human SKBR3 cells by MTT assay; format: functional, cell-based
[13] = biological target: Cyclin-dependent kinase 5/CDK5 activator 1 (Homo sapiens) (UniProt Q00535+Q15078); experiment: Inhibition of human CDK5/p25 using histone H1 as substrate in presence of [gamma33P]ATP after 30 mins by scintillation counting method; format: protein-complex assay
[14] = biological target: Dual specificity protein kinase CLK1 (Mus musculus) (UniProt P22518); experiment: Inhibition of mouse CLK1
Chain of Dual specificity protein kinase CLK1 (Mus musculus) (P22518 whole entry, looked up): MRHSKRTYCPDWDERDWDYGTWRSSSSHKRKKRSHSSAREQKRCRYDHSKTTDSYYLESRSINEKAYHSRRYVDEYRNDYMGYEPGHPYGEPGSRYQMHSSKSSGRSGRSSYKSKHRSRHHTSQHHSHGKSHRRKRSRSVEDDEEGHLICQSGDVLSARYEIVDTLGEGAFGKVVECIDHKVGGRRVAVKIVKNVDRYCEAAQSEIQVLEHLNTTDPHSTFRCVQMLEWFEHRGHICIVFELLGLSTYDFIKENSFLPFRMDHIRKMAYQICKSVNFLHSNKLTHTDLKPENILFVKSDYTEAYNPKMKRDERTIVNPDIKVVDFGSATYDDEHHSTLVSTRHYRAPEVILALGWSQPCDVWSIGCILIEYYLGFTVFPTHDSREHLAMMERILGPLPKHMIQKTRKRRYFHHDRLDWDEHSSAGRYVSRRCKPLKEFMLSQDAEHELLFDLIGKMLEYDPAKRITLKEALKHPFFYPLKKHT

[15] = biological target: Dual specificity tyrosine-phosphorylation-regulated kinase 1A (Rattus norvegicus) (UniProt Q63470); experiment: Inhibition of rat DYRK1A using myelin basic protein as substrate in presence of [gamma33P]ATP after 30 mins by scintillation counting method
[16] = biological target: Glycogen synthase kinase-3 (Sus scrofa) (UniProt B2LUN4+I6LNT8); experiment: Inhibition of pig GSK3alpha/beta using GS-1 as substrate in presence of [gamma33P]ATP after 30 mins by scintillation counting method
Sus scrofa = species on record: Sus scrofa; experiment: Inhibition of pig CK1delta/epsilon
[17] = biological target: T1, Serine/threonine-protein kinase haspin (Homo sapiens) (UniProt Q8TF76); experiment: Inhibition of human HASPIN
T1 sequence (whole entry): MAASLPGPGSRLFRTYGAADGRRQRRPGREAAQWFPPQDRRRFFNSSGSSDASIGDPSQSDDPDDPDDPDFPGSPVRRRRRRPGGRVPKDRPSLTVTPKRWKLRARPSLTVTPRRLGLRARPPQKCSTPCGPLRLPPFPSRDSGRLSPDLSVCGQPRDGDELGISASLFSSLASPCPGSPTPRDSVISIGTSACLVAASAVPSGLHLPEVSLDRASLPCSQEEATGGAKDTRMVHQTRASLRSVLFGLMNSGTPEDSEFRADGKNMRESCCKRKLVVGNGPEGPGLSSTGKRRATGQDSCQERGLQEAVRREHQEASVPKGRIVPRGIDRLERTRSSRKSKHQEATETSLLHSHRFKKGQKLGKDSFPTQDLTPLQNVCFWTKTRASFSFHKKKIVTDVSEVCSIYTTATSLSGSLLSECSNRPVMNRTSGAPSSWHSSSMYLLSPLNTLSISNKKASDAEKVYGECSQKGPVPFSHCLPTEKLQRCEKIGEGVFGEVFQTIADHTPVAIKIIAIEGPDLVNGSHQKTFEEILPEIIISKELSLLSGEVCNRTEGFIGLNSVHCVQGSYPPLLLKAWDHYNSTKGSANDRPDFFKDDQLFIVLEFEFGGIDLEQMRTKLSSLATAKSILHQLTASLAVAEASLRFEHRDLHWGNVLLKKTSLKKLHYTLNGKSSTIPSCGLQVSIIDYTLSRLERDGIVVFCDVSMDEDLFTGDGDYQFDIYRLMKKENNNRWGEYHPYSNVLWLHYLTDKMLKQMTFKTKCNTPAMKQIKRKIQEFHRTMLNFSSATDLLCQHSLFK

[18] = biological target: Aurora kinase B/Inner centromere protein (Homo sapiens) (UniProt Q96GD4+Q9NQS7); experiment: Inhibition of human AURKB/INCENP; format: protein-complex assay
[19] = biological target: Receptor-interacting serine/threonine-protein kinase 3 (Homo sapiens) (UniProt Q9Y572); experiment: Inhibition of human RIPK3
[20] = biological target: Vascular endothelial growth factor receptor 2 (Homo sapiens) (UniProt P35968); experiment: Inhibition of recombinant human GST-tagged VEGFR-2 (789-end residues) transphosphorylation activity expressed in baculovirus infected Sf9 cells using poly[Glu:Tyr] (4:1) as substrate after 60 mins
Chain of Vascular endothelial growth factor receptor 2 (Homo sapiens) (P35968 whole entry): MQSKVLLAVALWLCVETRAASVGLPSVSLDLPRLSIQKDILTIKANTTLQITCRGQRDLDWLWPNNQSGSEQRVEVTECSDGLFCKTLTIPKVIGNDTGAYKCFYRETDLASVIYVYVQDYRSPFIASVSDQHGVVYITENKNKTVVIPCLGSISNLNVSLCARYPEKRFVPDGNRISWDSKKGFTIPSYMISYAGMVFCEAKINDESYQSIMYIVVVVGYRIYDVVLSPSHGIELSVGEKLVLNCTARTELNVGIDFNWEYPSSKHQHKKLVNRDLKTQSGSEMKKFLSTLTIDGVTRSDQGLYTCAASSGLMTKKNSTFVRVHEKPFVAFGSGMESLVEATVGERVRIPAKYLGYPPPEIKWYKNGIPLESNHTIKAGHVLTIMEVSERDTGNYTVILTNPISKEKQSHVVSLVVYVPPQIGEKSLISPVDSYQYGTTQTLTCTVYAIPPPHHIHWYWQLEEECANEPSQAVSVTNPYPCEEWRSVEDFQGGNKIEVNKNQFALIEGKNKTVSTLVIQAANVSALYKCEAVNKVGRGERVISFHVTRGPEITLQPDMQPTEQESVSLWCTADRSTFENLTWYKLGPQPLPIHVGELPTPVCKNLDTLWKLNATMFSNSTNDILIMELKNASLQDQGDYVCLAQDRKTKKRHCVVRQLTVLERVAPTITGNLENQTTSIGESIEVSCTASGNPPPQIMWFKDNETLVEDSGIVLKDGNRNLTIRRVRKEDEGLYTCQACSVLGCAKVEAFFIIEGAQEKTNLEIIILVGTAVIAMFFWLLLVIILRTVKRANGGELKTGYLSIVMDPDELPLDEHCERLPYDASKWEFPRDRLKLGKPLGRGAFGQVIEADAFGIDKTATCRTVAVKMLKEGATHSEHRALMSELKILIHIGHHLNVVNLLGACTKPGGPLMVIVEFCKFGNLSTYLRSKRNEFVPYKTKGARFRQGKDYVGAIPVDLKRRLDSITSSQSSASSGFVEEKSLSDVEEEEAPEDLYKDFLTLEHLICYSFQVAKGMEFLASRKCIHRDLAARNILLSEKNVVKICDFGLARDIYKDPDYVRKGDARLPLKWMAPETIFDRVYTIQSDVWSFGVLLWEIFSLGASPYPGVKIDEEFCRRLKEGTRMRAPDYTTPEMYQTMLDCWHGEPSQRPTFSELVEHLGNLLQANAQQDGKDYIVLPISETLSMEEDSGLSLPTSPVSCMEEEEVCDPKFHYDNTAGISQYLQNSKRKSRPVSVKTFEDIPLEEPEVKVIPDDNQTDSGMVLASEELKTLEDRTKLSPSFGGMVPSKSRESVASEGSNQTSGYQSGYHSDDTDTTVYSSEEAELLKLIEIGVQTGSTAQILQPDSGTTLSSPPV

[21] = biological target: Platelet-derived growth factor receptor beta (Homo sapiens) (UniProt P09619); experiment: Inhibition of recombinant human GST-tagged PDGFR-beta (557-end residues) transphosphorylation activity expressed in baculovirus infected Sf9 cells using poly[Glu:Tyr] (4:1) as substrate after 60 mins
Chain of Platelet-derived growth factor receptor beta (Homo sapiens) (P09619 whole entry): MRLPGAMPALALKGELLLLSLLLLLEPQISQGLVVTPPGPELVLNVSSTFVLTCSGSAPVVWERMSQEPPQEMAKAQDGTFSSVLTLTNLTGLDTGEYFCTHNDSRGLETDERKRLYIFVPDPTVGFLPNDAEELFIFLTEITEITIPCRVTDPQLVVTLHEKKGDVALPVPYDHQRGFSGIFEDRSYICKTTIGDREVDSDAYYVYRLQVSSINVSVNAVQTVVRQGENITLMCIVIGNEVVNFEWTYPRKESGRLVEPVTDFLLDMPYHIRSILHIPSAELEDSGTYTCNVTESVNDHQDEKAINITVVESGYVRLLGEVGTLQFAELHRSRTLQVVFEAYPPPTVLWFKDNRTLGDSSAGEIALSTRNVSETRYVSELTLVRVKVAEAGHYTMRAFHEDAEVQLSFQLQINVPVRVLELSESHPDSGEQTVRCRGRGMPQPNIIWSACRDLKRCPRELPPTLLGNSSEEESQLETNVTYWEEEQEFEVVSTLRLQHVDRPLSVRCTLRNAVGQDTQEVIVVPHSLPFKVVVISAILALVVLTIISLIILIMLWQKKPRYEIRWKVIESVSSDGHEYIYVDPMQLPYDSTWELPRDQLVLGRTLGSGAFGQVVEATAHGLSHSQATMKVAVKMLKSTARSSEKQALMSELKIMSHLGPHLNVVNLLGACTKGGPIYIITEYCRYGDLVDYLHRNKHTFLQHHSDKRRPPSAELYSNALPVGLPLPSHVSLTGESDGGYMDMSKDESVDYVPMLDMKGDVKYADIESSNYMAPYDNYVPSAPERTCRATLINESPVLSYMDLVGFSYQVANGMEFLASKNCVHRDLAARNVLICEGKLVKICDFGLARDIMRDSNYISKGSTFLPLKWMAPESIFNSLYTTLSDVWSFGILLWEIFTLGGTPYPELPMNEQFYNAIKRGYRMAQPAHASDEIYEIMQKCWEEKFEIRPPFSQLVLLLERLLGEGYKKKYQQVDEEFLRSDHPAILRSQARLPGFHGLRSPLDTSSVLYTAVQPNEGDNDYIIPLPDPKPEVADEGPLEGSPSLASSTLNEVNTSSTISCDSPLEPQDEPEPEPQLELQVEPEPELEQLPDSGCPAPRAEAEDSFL

[22] = biological target: Mast/stem cell growth factor receptor Kit (Homo sapiens) (UniProt P10721); experiment: Inhibition of recombinant human GST-tagged KIT (544-end residues) transphosphorylation activity expressed in baculovirus infected Sf9 cells using poly[Glu:Tyr] (4:1) as substrate after 60 mins
Chain of Mast/stem cell growth factor receptor Kit (Homo sapiens) (P10721 whole entry, the tested form may be a part): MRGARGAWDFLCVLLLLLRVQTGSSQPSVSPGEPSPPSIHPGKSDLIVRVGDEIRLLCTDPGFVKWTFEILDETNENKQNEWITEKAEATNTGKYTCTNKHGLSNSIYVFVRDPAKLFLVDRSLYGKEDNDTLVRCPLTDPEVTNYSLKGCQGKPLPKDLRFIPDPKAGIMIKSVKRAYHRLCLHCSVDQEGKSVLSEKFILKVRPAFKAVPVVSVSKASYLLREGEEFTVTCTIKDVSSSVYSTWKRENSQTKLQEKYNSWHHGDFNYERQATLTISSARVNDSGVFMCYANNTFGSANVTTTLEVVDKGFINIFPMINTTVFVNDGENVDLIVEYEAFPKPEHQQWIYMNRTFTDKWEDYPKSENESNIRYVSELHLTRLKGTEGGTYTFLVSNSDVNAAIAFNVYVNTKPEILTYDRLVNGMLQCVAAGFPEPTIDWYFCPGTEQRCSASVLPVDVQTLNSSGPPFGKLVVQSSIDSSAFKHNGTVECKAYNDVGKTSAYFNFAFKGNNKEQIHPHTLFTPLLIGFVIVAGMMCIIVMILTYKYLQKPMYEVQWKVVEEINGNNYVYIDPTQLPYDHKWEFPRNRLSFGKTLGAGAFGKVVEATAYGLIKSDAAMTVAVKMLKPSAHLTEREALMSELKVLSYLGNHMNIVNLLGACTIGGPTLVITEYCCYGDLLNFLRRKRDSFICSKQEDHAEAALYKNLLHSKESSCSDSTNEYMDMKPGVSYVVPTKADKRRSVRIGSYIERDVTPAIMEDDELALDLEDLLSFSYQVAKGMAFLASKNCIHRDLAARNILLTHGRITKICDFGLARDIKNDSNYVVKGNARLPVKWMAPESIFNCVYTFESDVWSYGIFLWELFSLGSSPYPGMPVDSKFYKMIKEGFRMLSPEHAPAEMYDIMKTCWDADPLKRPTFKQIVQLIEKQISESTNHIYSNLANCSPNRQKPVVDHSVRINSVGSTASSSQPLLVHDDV

[23] = biological target: Receptor-type tyrosine-protein kinase FLT3 (Homo sapiens) (UniProt P36888); experiment: Inhibition of recombinant human GST-tagged FLT3 (571 to 993 residues) transphosphorylation activity expressed in baculovirus infected Sf9 cells using poly[Glu:Tyr] (4:1) as substrate after 60 mins
Chain of Receptor-type tyrosine-protein kinase FLT3 (Homo sapiens) (P36888 whole entry, the tested form may be a part, canonical isoform): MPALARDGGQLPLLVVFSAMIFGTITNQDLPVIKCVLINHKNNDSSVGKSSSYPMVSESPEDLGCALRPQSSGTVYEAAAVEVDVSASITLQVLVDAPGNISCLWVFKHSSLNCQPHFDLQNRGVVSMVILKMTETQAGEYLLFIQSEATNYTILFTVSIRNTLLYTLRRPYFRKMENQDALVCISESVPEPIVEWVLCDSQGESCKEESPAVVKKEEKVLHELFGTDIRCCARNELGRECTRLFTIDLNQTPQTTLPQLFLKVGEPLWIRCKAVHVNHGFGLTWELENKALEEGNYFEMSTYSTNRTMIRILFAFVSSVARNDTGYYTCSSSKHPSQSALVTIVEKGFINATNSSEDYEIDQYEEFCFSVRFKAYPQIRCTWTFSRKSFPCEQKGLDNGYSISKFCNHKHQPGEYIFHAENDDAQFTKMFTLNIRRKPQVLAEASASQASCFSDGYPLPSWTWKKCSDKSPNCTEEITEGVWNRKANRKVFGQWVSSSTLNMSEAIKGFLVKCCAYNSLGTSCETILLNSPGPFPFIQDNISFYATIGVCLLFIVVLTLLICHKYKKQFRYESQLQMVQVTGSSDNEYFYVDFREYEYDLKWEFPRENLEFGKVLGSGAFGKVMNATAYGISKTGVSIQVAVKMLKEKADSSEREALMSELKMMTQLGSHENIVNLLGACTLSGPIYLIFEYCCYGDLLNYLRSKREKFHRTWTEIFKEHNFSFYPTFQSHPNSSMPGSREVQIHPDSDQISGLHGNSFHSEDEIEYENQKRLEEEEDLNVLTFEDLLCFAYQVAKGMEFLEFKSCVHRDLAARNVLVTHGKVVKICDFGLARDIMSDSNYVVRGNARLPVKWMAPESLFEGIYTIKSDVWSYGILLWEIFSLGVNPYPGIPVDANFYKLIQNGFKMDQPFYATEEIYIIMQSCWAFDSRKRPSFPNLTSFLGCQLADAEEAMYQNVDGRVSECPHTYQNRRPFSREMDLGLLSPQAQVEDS

[24] = biological target: Phosphatidylinositol 4,5-bisphosphate 3-kinase catalytic subunit alpha isoform (Homo sapiens, UniProt P42336); experiment: Inhibition of PI3Kalpha catalytic domain (unknown origin) using PIP2 liposomes as substrate in presence of biotin-labeled PIP3 and GST-GRP1-PH by streptavidin-HRP based assays
[25] = Cmax in NOD/SCID mouse at 0.5 mg/kg, po administered as single dose by LC-MS/MS method; format: ADME, organism-based; set-up: dose 0.5 mg/kg, route oral; details: in vivo
[26] = Cmax in NOD/SCID mouse at 0.5 mg/kg, ip administered as single dose by LC-MS/MS method; format: ADME, organism-based; set-up: dose 0.5 mg/kg, route intraperitoneal; details: in vivo
[27] = Tmax in NOD/SCID mouse at 0.5 mg/kg, po administered as single dose by LC-MS/MS method; format: ADME, organism-based; details: in vivo
[28] = Tmax in NOD/SCID mouse at 0.5 mg/kg, ip administered as single dose by LC-MS/MS method; format: ADME, organism-based; details: in vivo
[29] = AUC (0 to 8 hrs) in NOD/SCID mouse at 0.5 mg/kg, po administered as single dose by LC-MS/MS method; format: ADME, organism-based; set-up: time < 8 hr, dose 0.5 mg/kg, route oral; details: in vivo
[30] = AUC (0 to 8 hrs) in NOD/SCID mouse at 0.5 mg/kg, ip administered as single dose by LC-MS/MS method; format: ADME, organism-based; set-up: dose 0.5 mg/kg, time < 8 hr, route intraperitoneal; details: in vivo
Mus musculus [31] = experiment: Toxicity in NOD/SCID mouse assessed as phenotypic changes at 0.5 mg/kg, po administered as single dose; format: organism-based; details: in vivo
Mus musculus [32] = experiment: Toxicity in NOD/SCID mouse assessed as phenotypic changes at 0.5 mg/kg, ip administered as single dose; format: organism-based; details: in vivo
HCC1954 [33] = experiment: Anti-tumor activity against HER2-amplified human HCC1954 cells xenografted in NOD/SCID mouse assessed as tumor size at 10 mg/kg, ip administered once daily for 18 days measured after 1 hr last dose (reference value: 497 +/- 82 mm3); format: functional

inhibition [13]: inactive | inhibition [14]: inactive | inhibition [15]: inactive | inhibition [16]: inactive | inhibition (Sus scrofa): inactive | inhibition [17]: inactive | inhibition [18]: inactive | inhibition [19]: inactive | inhibition [20]: inactive | inhibition [21]: inactive | inhibition [22]: inactive | inhibition [23]: inactive | inhibition [24]: inactive | Cmax [25]: 320 nM | Cmax [26]: 520 nM | Tmax [27]: 15 min | Tmax [28]: 30 min | AUC(0-t) at 8 h [29]: 0.43 µM·h | AUC(0-t) at 8 h [30]: 0.57 µM·h
SMILES: Cc1nc2nc(Sc3ccccc3)cnc2cc1NC(=O)c1ccccc1
Activity (MCF7 [1]): >50% | Activity (MCF7 [2]): >50% | Activity (T47D [3]): >50% | Activity (T47D [4]): >50% | Activity (MDA-MB-231 [5]): >50% | Activity (MDA-MB-231 [6]): >50% | Activity (HCC1954 [7]): >50% | Activity (HCC1954 [8]): >50% | pIC50 (MCF7 [9]): 5.40 | pIC50 (T47D [10]): 5.82 | pIC50 (MDA-MB-231 [11]): 5.40 | pIC50 (HCC1954 [12]): 5.35 | pIC50 (SK-BR-3): 5.43 | Activity (Mus musculus [31]): Non-Toxic | Activity (Mus musculus [32]): Non-Toxic

SMILES: CS(=O)(=O)N1CCN(Cc2cc3nc(-c4cccc5[nH]ncc45)nc(N4CCOCC4)c3s2)CC1 [PICTILISIB]
pIC50 (MCF7 [9]): 5.70 | pIC50 (T47D [10]): 5.92 | pIC50 (MDA-MB-231 [11]): < 4.52 | pIC50 (HCC1954 [12]): 5.89 | pIC50 (SK-BR-3): 6.05 | Activity (HCC1954 [33]): 350 mm3

inhibition [13]: inactive | inhibition [14]: inactive | inhibition [15]: inactive | inhibition [16]: inactive | inhibition (Sus scrofa): inactive | inhibition [17]: inactive | inhibition [18]: inactive | inhibition [19]: inactive | inhibition [20]: inactive | inhibition [21]: inactive | inhibition [22]: inactive | inhibition [23]: inactive | inhibition [24]: inactive
SMILES: Cc1nc2nc(Oc3ccccc3)cnc2cc1NC(=O)Nc1ccccc1
Activity (MCF7 [1]): >50% | Activity (MCF7 [2]): >50% | Activity (T47D [3]): >50% | Activity (T47D [4]): >50% | Activity (MDA-MB-231 [5]): >50% | Activity (MDA-MB-231 [6]): >50% | Activity (HCC1954 [7]): >50% | Activity (HCC1954 [8]): >50% | pIC50 (MCF7 [9]): 5.15 | pIC50 (T47D [10]): 5.03 | pIC50 (MDA-MB-231 [11]): 5.29 | pIC50 (HCC1954 [12]): 5.28 | pIC50 (SK-BR-3): 5.14

SMILES: Cc1ccc(C(=O)Nc2cc3nccnc3nc2C)cc1
Activity (MCF7 [1]): <50% | Activity (MCF7 [2]): <50% | Activity (T47D [3]): <50% | Activity (T47D [4]): <50% | Activity (MDA-MB-231 [5]): <50% | Activity (MDA-MB-231 [6]): <50% | Activity (HCC1954 [7]): <50% | Activity (HCC1954 [8]): <50%

SMILES: Cc1nc2nccnc2cc1NC(=O)CN1CCN(C)CC1
Activity (MCF7 [1]): <50% | Activity (MCF7 [2]): <50% | Activity (T47D [3]): <50% | Activity (T47D [4]): <50% | Activity (MDA-MB-231 [5]): <50% | Activity (MDA-MB-231 [6]): <50% | Activity (HCC1954 [7]): <50% | Activity (HCC1954 [8]): <50%

SMILES: Cc1nc2nccnc2cc1NC(=O)c1ccccc1
Activity (MCF7 [1]): <50% | Activity (MCF7 [2]): <50% | Activity (T47D [3]): <50% | Activity (T47D [4]): <50% | Activity (MDA-MB-231 [5]): <50% | Activity (MDA-MB-231 [6]): <50% | Activity (HCC1954 [7]): <50% | Activity (HCC1954 [8]): <50%

SMILES: Cc1nc2nc(Sc3ccccc3)cnc2cc1NC(=O)Nc1cccc(C(F)(F)F)c1
Activity (MCF7 [1]): <50% | Activity (MCF7 [2]): <50% | Activity (T47D [3]): <50% | Activity (T47D [4]): <50% | Activity (MDA-MB-231 [5]): <50% | Activity (MDA-MB-231 [6]): <50% | Activity (HCC1954 [7]): <50% | Activity (HCC1954 [8]): <50%

SMILES: COc1cc(C(=O)Nc2cc3nccnc3nc2C)cc(OC)c1OC
Activity (MCF7 [1]): <50% | Activity (MCF7 [2]): <50% | Activity (T47D [3]): <50% | Activity (T47D [4]): <50% | Activity (MDA-MB-231 [5]): <50% | Activity (MDA-MB-231 [6]): <50% | Activity (HCC1954 [7]): <50% | Activity (HCC1954 [8]): <50%

SMILES: Cc1nc2nc(Sc3ccccc3)cnc2cc1N
Activity (MCF7 [1]): <50% | Activity (MCF7 [2]): <50% | Activity (T47D [3]): <50% | Activity (T47D [4]): <50% | Activity (MDA-MB-231 [5]): <50% | Activity (MDA-MB-231 [6]): <50% | Activity (HCC1954 [7]): <50% | Activity (HCC1954 [8]): <50%
